Test results taken from article PMC7433010, “Exploration of multi‐target effects of 3‐benzoyl‐5‐hydroxychromen‐2‐one in Alzheimer’s disease cell and mouse models” (Aging Cell, 2020).

Target: T1, ΔK280 TauRD‐DsRed (Homo sapiens, UniProt P10636, DEL597-597)
T1 construct: containing residues 244–372 of the full‐length 4R2N Tau441; expressed in transfected cells; host or cells: Tet-On 293 cells, doxycycline-induced (pcDNA5/FRT/TO/TauRD-DsRed)
Test: ∆K280 TauRD‐DsRed fluorescence assay (Tau misfolding) in 293 cells
Assay type: cell-based
Conditions: 3 days
Text: In ∆K280 TauRD‐DsRed 293 cells, a proaggregant (ΔK280) Tau repeat domain (TauRD) containing residues 244–372 of the full‐length 4R2N Tau441 was fused in‐frame with DsRed fluorophore. Compared to the wild‐type TauRD, the poorly folded ΔK280 TauRD formed aggregates, which adversely affected the folding of fused DsRed and thus decreased DsRed fluorescence, as also evidenced by increase in thioflavin S fluorescence emission (Chang et al., 2017). Thioflavin S is a reporter dye for studies of Tau toxicity and pharmacologic prevention in cell model of tauopathy (Pickhardt et al., 2017). It binds to amyloid fibrils but not monomers and gives a distinct increase in fluorescence emission. Inhibition of Tau aggregation may improve DsRed misfolding, leading to increased fluorescence in ΔK280 TauRD‐DsRed‐expressing cells. […] In the following experiments, DsRed fluorescence was measured in wells containing at least 80% viable cells. […]
DsRed fluorescence of proaggregant ∆K280 TauRD-DsRed 293 cells was evaluated to reflect Tau aggregation. […] Thioflavin S images (FITC 543 nm excitation and 593 nm emission) were captured and analyzed as described. In general, 2 × 10^4 cells in each biological replicate were analyzed.
Figure S2. ΔK280 TauRD-DsRed 293 cells. […] DsRed/thioﬂavin S fluorescence, ROS, and caspase 3 activity were assessed on day 5. […] (c) Dose response curves of LM-031 based on DsRed fluorescence measurement. […]

T1 sequence (P10636 with tags, fused parts or gaps isoform P10636-8 DEL280-280): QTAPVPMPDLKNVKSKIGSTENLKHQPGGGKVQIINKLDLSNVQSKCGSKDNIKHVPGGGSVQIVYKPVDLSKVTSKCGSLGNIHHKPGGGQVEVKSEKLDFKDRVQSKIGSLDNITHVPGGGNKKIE

Nc1c(/N=N/c2ccc(-c3ccc(/N=N/c4cc(S(=O)(=O)O)c5ccccc5c4N)cc3)cc2)cc(S(=O)(=O)O)c2ccccc12 [congo red, reference compound]
∆K280 TauRD‐DsRed fluorescence (10 µM, no treatment = 100%): 108%

C=CC(C)(C)c1cc(/C=C/C(=O)c2ccc(O)cc2)c(OC)cc1O [licochalcone A, reference compound]
∆K280 TauRD‐DsRed fluorescence (1 µM, untreated cells = 100%): 105%
